Source: patent EP4151631A1, “HETEROCYCLIC COMPOUNDS FOR THE CONTROL OF INVERTEBRATE PESTS” (BASF SE, priority 2021, dated 2023)

Experiments:
Spodoptera eridania = assay: Southern armyworm foliar spray test on lima bean plants; assay type: in vivo; details: 96 h, 2nd instar larvae on sprayed lima bean plants, 4 days after treatment, read-out: mortality in comparison with untreated controls
Description: The active compounds were formulated by a Tecan liquid handler in 100% cyclohexanone as a 10,000 ppm solution supplied in tubes. The 10,000 ppm solution was serially diluted in 100% cyclohexanone to make interim solutions. These served as stock solutions for which final dilutions were made by the Tecan in 50% acetone:50% water (v/v) into 10 or 20ml glass vials. A nonionic surfactant (Kinetic®) was included in the solution at a volume of 0.01% (v/v). The vials were then inserted into an automated electrostatic sprayer equipped with an atomizing nozzle for application to plants/insects. Lima bean plants (variety Sieva) were grown 2 plants to a pot and selected for treatment at the 1st true leaf stage. Test solutions were sprayed onto the foliage by an automated electrostatic plant sprayer equipped with an atomizing spray nozzle. The plants were dried in the sprayer fume hood and then removed from the sprayer. Each pot was placed into perforated plastic bags with a zip closure. Ten to 11 armyworm larvae were placed into the bag and the bags zipped closed. Test plants were maintained in a growth room at about 25°C and about 20-40% relative humidity for 4 days, avoiding direct exposure to fluorescent light (14:10 light:dark photoperiod) to prevent trapping of heat inside the bags. Mortality and reduced feeding were assessed 4 days after treatment, compared to untreated control plants.

Plutella xylostella = assay: Diamond back moth leaf-dip test on cabbage leaves; assay type: in vivo; details: 3rd instar larvae on dipped cabbage leaves, 72 hours after treatment, read-out: mortality in comparison with untreated controls
Description: The active compound was dissolved at the desired concentration in a mixture of 1:1 (vol:vol) distilled water: acetone. Surfactant (Kinetic HV) was added at a rate of 0.01% (vol/vol). The test solution was prepared on the day of use.
Leaves of cabbage were dipped in test solution and air-dried. Treated leaves were placed in petri dishes lined with moist filter paper and inoculated with ten 3rd instar larvae. Mortality was recorded 72 hours after treatment. Feeding damages were also recorded using a scale of 0-100%.

SMILES | mortality at 300 ppm (Spodoptera eridania) [%] | mortality at 300 ppm (Plutella xylostella) [%]
CC(NC(=O)c1cc(Br)cc(C(F)(F)F)c1)c1nccnc1-n1ncn(C)c1=O (stereo not shown) [I-1, 3-bromo-N-[1-[3-(4-methyl-5-oxo-1,2,4-triazol-1-yl)pyrazin-2-yl]ethyl]-5-(trifluoromethyl)benzamide] | ≥ 75 | ≥ 75
CC(NC(=O)c1cc(Br)cc(C(F)(F)F)c1)c1nccnc1-n1ncn(CC(F)(F)F)c1=O (stereo not shown) [I-2, 3-bromo-N-[1-[3-[5-oxo-4-(2,2,2-trifluoroethyl)-1,2,4-triazol-1-yl]pyrazin-2-yl]ethyl]-5-(trifluoromethyl)benzamide] | ≥ 75 | ≥ 75
